Experimental data: patent US8268767B2, “Personal wash cleanser comprising defined alkanoyl compounds, defined fatty acyl isethionate surfactant product and skin or hair benefit agent” (priority 2010, dated 2012)

Test system: skin (patch test sites on the intrascapular area of the back)
Assay: Patch Test, 14-day cumulative irritation test
Details: for Patch test Total irritation score: cleansers diluted to 25% w/w, 14-day cumulative score
Experimental: This was randomized, double-blind study. A sufficient number of subjects were recruited to ensure that 25 subjects completed the study. The 14-day cumulative irritation test was conducted as follows. Patching occurred for 14 consecutive days, except on Sundays. Patches applied on Saturday were left in place until Monday, when freshly prepared patches were applied. The designated patch test sites were approximately 2 cm×2 cm on the intrascapular area of the back. Approximately 0.2 mL of the test product was placed onto a Parke-Davis Readi-Bandage® occlusive patch that measured 2 cm×2 cm. Solutions were made by diluting the cleansers to 25% w/w in distilled water. The patch was then applied to the designated test site. The patches were secured with hypoallergenic tape (Scanpor {Allerderm} as needed). A 0.5% sodium dodecyl sulfate (SDS) solution was used as the control in the test.
Each day following application, the patches were removed, the sites evaluated and identical patches reapplied to the same test sites. All evaluations were made using the following 6-point scoring system: • 0=No evidence of any effect • +=Barely perceptible (minimal, faint, uniform or spotty erythema) numerically equivalent to 0.5 • 1=Mild (pink, uniform erythema covering most of the contact site) • 2=Moderate (pink-red, erythema uniform in the entire contact site) • 3=Marked (bright red erythema with/without petechiae or papules) • 4=Severe (deep red erythema with/without vesiculation or weeping)
If a dermal reaction of 3 or 4 occur with any of the test articles at any point during the study, further patch testing on that subject was terminated at the test site involved, and the attained score was assigned to that site for the subsequent scheduled test days.
Cumulative irritation scores, which were the sum of the numerical irritation grades assigned daily during the 14-day test period, were calculated at the end of the study to compare mildness of the test products. […] The data were statistically analyzed using Tukey-Kramer Comparison, and statistical significance was determined at the 95% confidence level.

[1] = first patch test of Table 1 (0.5% SDS control = 783)
[2] = second patch test of Table 1 (0.5% SDS control = 912)

CCCCCCCCCCCCOS(=O)(=O)[O-].[Na+] [0.5% SDS Solution, sodium dodecyl sulfate]
Total irritation score compared to 0.5% SDS solution [1]: 100% | Patch test Total irritation score [1]: 783 | Total irritation score compared to 0.5% SDS solution [2]: 100% | Patch test Total irritation score [2]: 912
